From patent US20150223463A1, “SPIROCYCLIC ISOXAZOLINE DERIVATIVES FOR TREATMENT OF SEA LICE” (Zoetis LLC, priority 2012, published 2015)

Test system: Lepeophtheirus salmonis (sea lice)
Experiment: Sea lice bioassay, 24 hours exposure to test compound
Assay type: in vivo
Settings: predominantly pre-adult and adult stage, generally chemical resistant strain

CS(=O)(=O)CC(=O)N1CC2(C1)OCc1cc(C3=NOC(c4cc(Cl)c(F)c(Cl)c4)(C(F)(F)F)C3)ccc12 (centres unmarked) [Example 1]
Adult Females (EC50) (adult female sea lice): 0.13 ppb | Adult Males (EC50) (adult male sea lice): 0.08 ppb
